# In patent US11279727B2, “Anti-viral compounds and methods of use” (Metro International Biotech, LLC, priority 2020, dated 2022):
# Test system: SARS-CoV-2, USA-WA1/2020
# Assay: Antiviral assay: inhibition of SARS-CoV-2 cytopathic effect, neutral red
# Assay type: cell-based
# Details: Severe acute respiratory syndrome coronavirus 2; Vero 76 cells, CPE inhibition by 50%, neutral red; i) and ii) are separate determinations; read-out: Anti-viral Assay (EC50)
structure (smiles),measurement,value
N#C[C@@]1(c2ccc3c(N)ncnn23)O[C@H](CO)[C@@H](O)[C@H]1O [GS-441524],EC50,500 to 1100 nM
